From publication PMC4378623, “Plant membrane assays with cytokinin receptors underpin the unique role of free cytokinin bases as biologically active ligands” (Journal of Experimental Botany, 2015) come the findings set out here.

Assay [1] addresses T1, AHK3 (Arabidopsis thaliana, UniProt Q9C5U1).
T1 sequence (Q9C5U1 1-1036): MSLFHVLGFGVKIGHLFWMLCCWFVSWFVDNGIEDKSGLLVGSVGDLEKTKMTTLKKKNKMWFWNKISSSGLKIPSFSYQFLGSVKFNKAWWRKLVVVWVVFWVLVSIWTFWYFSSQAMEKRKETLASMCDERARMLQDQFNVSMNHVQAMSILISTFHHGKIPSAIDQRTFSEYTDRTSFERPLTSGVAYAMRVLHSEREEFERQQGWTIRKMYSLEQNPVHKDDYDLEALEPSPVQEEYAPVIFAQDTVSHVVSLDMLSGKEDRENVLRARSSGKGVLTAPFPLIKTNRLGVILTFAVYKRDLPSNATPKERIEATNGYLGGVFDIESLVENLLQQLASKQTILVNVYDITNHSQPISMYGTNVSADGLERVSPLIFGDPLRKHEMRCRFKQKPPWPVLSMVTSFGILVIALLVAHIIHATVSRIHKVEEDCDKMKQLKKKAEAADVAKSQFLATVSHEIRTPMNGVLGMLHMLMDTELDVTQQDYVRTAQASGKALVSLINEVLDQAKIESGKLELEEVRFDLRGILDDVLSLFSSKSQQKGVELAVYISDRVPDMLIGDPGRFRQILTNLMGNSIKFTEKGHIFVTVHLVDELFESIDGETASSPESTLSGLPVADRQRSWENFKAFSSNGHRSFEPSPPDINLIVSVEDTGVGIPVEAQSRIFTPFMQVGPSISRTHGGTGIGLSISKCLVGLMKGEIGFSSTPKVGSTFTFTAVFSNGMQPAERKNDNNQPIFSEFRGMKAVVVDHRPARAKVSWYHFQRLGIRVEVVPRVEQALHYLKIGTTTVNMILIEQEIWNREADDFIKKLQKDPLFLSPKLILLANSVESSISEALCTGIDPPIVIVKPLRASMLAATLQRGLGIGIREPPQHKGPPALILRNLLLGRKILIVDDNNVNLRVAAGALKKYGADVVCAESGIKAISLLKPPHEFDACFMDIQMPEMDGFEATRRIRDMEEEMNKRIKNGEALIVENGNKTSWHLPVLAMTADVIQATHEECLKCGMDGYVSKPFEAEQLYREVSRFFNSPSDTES
Kind of assay: competition with [3H]tZ, plant microsomes. Format: binding. Conditions: pH 7.4, 0-4 °C. The arrangement: full-length cDNA in pB7FWG2-AHK3, C-terminal eGFP fusion, transiently expressed in Nicotiana benthamiana leaves, microsomes. The text has this:
competition with [3H]tZ, plant microsomes on AHK3

Assay [2] concerns the target T2, ZmHK1 (Zea mays, UniProt Q9FRY7).
T2 sequence (Q9FRY7 1-974): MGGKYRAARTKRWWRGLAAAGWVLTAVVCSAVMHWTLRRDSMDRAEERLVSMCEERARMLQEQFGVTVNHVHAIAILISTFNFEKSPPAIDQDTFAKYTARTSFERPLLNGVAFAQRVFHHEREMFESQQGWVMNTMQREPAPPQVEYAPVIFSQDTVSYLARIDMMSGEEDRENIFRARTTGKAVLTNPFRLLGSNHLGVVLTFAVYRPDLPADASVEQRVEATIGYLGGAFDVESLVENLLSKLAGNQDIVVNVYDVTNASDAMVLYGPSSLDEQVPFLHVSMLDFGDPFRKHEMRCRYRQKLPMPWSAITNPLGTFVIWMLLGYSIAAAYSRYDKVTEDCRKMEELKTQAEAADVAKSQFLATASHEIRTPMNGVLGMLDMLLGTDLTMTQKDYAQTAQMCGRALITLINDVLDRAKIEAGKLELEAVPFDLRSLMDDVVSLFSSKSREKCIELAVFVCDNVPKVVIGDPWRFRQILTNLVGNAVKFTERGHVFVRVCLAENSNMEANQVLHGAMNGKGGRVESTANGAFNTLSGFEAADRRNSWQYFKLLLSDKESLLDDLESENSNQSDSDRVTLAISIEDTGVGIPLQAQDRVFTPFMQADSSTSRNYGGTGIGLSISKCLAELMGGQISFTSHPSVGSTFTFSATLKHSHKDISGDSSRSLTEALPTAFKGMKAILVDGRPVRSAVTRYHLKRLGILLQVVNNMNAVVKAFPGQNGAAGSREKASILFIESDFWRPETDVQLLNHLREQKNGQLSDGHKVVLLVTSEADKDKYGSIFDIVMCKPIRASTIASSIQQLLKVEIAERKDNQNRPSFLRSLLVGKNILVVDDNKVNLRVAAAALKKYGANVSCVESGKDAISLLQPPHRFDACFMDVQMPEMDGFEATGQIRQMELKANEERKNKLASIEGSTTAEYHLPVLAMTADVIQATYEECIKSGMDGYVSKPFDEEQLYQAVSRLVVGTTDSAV
Kind of assay: competition with [3H]tZ, plant microsomes. Further details: full-length coding region in pB7FWG2-ZmHK1, C-terminal eGFP fusion, transiently expressed in Nicotiana benthamiana leaves, microsomes. Format: binding. Conditions: pH 7.4, 0-4 °C.

The target of assay [3] is T3, AHK2 (Arabidopsis thaliana, UniProt Q9C5U2).
T3 sequence (Q9C5U2 1-1176): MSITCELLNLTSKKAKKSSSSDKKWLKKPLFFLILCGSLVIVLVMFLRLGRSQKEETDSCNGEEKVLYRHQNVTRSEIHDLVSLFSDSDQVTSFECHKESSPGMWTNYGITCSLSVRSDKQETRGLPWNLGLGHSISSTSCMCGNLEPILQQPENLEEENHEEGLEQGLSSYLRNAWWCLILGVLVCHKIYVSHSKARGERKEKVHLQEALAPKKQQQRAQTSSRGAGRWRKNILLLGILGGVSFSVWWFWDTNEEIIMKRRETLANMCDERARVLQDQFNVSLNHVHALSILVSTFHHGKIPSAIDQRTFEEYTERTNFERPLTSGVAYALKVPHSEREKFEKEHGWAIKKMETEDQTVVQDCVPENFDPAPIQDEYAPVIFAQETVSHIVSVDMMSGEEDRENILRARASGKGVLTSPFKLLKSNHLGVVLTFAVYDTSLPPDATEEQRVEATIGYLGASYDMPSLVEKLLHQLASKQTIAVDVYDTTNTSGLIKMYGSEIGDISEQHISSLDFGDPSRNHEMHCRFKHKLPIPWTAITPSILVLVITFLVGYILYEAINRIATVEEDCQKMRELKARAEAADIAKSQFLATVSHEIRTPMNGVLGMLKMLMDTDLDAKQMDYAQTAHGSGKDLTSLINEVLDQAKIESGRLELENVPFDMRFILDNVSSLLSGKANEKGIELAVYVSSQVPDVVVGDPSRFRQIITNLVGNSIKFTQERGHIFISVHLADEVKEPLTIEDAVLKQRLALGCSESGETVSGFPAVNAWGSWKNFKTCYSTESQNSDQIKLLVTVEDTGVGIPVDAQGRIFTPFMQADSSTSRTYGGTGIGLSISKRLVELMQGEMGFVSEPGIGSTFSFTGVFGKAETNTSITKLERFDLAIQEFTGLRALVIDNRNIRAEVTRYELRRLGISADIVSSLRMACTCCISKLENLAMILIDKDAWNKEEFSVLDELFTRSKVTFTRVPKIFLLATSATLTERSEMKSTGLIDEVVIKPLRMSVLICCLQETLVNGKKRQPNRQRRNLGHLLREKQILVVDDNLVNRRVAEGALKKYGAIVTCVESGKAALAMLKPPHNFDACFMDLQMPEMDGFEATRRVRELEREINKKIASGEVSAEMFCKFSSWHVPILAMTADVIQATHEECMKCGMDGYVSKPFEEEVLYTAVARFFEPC
Kind of assay: competition with [3H]tZ, plant microsomes. Type of assay: binding. Conditions: pH 7.4, 0-4 °C. The text has this:
competition with [3H]tZ, plant microsomes on AHK2

Assay [4] concerns the target T2, ZmHK1. Kind of assay: biochemical. The text has this:
[3H]tZ saturation binding to plant microsomes, Scatchard on ZmHK1

Assay [5] concerns the target T1, AHK3. Kind of assay: biochemical. The text has this:
[3H]tZ saturation binding to plant microsomes, Scatchard on AHK3

The target of assay [6] is AHK4 (Arabidopsis thaliana, UniProt Q9C5U0). As to the kind of experiment: biochemical.
The target in assay [7] is T3, AHK2. As to the kind of experiment: biochemical. The text has this:
[3H]tZ saturation binding to plant microsomes, Scatchard on AHK2

Sequence of AHK4 (Q9C5U0 whole entry): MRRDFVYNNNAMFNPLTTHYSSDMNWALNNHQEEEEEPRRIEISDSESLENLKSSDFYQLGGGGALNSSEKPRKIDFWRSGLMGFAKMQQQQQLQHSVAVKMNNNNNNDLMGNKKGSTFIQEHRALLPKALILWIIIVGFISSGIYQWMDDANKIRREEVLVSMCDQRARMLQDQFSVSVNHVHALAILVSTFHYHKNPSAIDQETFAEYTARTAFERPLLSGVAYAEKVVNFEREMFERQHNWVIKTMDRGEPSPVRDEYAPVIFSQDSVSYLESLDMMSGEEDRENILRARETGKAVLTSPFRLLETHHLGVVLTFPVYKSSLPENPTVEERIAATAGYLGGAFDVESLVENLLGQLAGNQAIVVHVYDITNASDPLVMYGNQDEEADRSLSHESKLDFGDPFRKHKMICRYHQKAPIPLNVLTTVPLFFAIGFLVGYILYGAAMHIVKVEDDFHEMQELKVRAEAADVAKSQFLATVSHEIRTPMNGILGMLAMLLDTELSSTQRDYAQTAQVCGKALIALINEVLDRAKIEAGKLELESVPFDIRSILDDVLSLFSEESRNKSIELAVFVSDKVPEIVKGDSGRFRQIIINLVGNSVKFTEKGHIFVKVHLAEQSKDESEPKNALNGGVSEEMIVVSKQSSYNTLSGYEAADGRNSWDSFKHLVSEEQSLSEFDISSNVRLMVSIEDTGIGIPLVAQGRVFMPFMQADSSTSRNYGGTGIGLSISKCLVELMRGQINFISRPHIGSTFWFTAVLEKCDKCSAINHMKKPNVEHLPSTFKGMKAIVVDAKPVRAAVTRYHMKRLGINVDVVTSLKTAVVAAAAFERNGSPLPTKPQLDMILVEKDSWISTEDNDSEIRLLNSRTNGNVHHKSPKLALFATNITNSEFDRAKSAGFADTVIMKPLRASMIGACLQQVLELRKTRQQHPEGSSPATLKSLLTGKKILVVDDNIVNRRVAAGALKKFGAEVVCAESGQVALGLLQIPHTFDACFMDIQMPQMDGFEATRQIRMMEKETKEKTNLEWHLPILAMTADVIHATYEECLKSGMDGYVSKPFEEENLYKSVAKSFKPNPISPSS

In turn, `Nc1ncnc2nc[nH]c12` [Ade, adenine] showed a Kd in assay [1] greater than 10000 nM.
With `C[C@H](CO)CCNc1ncnc2nc[nH]c12` [DZ, dihydrozeatin], the values for the Kd in assay [2], in assay [1] and in assay [3] were 128 ± 47 nM, 33.1 ± 6.2 nM and 161 ± 55 nM, respectively.
On to `CC(C)=CCNc1ncnc2nc[nH]c12` [iP, isopentenyladenine], for which the Kd amounted to 0.61 ± 0.27 nM in assay [2], 42 ± 13.5 nM in assay [1] and 1.42 ± 0.52 nM in assay [3].
Regarding `C/C(=C\CNc1ncnc2[nH]cnc12)CO` [tZ, trans-zeatin], the Kd in assay [4] was 7.97 ± 1.96 nM; in assay [5], 4.26 ± 1.69 nM; in assay [6] it was 2 to 8 nM; in assay [7], 1.93 ± 0.26 nM.
